According to patent publication US20240016781A1, “TREATMENT OF KRAS MUTANT CANCERS” (MEI Pharma, Inc., priority 2020, published 2024):
Where two headings read alike, the source gives them in different places.

Tests used:
Test in all cases: 72-hour CellTiter-Glo 2.0 growth inhibition screen (single agent, 9x9 combination dose matrix)
Assay type in all cases: cell-based
Panc 04.03 = settings: for EC50 / Response Area: Panc 04.03, Pancreas
Experimental: (§1) Growth inhibition was determined using a 72-hour CellTiter-Glo®2.0 proliferation assay. Combination format was a 9×9 dose matrix. Six of the 20 cell lines received the original two combinations whilst the remaining 14 cell lines received two additional combinations resulting in four combinations in total. Results have been supplied as both Chalice Analyzer files (.mcc) and raw luminescence data.
(§2) Cell lines that have been preserved in liquid nitrogen are thawed and expanded in growth media (see Appendix I). Once cells have reached expected doubling times, screening begins. Cells are seeded in 25 μl of growth media in black 384-well tissue culture treated plates at 500 cells per well (as noted in Analyzer). Cells are equilibrated in assay plates via centrifugation and placed at 37° C. 5% CO2 for twenty-four hours before treatment. […] Compounds are transferred to assay plates using and Echo acoustic liquid handling system. […] of each compound was added at the appropriate concentration for all combination dose points. Therefore, final assay volume would be 25.05 μl. Assay plates are incubated with compound for 3 days and are then analyzed using CellTiter-Glo 2.0. All data points are collected via automated processes and are subject to quality control and analyzed.
(§3) If T≥V_0:100*(1−(T−V_0)/(V−V_0)) • where T is the signal measure for a test article, V is the untreated/vehicle-treated control measure, and Vo is the untreated/vehicle control measure at time zero (also colloquially referred as TO plates). This formula is derived from the Growth Inhibition calculation used in the National Cancer Institute's NCI-60 high throughput screen. For the purposes of this disclosure, all data analysis was performed in Growth Inhibition (except where noted).
(§4) Inhibition is also provided as a measure of cell viability. […] Inhibition of 100% represents no doubling of cell numbers during the treatment window. Both cytostatic and cytotoxic treatments can yield an Inhibition percentage of 100%. Inhibition percentage is calculated as the following: […]
(§5) The fractional inhibition for each component agent and combination point in the matrix is calculated relative to the median of all untreated/vehicle-treated control wells. The Synergy Score equation integrates the experimentally-observed activity volume at each point in the matrix in excess of a model surface numerically derived from the activity of the component agents using the Loewe model for additivity. Additional terms in the Synergy Score equation (above) are used to normalize for various dilution factors used for individual agents and to allow for comparison of synergy scores across an entire experiment. The inclusion of positive inhibition gating or an Idata multiplier removes noise near the zero-effect level, and biases results for synergistic interactions at that occur at high activity levels. Combinations with higher maximum Growth Inhibition (GI) effects or those which are synergistic at low concentrations will have higher Synergy Scores.
(§6) The CI is a rough estimate of how much drug was needed in combination relative to the single agent doses required to achieve the chosen effect level. CI values in the range of 0.5-0.7 are typical for in vitro measurements of current clinical combinations. The CI error (σCI) is calculated using standard error propagation through the CI calculation based on the isobologram errors. In the Chalice Analyzer, the Best CI is reported from the many CI values calculated for each Icut crossing combination. Among all the measured CI values, the one with the largest single-to-noise level (1−CI)/σCI is reported as the Best CI. Best CI Level is the effect level from which the CI is calculated.

HCC1171 = tested on: HCC1171
Experimental: as §1, §2, §3, §4, §5, §6

Gp2D = settings: for EC50: GP2d
Experimental: as §1, §2, §3, §4, §5, §6

TOV-21G = tested on: TOV-21G
Experimental: as §1, §2, §3, §4, §5, §6

SW48 KRAS (G12C/+) = settings: for EC50: SW48, 72 h, read-out: EC50
Experimental: as §1, §2, §3, §4, §5, §6

[1] = Panc 04.03 (KRAS G12D), enhancer + MEI-522 (Voruciclib), 72 h
[2] = enhancer combined with MEI-522 (Voruciclib), Panc 04.03 (Pancreas), 72 hours, inhibition data
[3] = HCC1171 (KRAS G12C), enhancer + MEI-522 (Voruciclib), 72 h
[4] = HCC1171, Lung, Additional Single Agent Responses (inhibition, % I), 72 h
[5] = enhancer combined with MEI-522 (Voruciclib), HCC1171 (Lung), 72 hours, inhibition data
[6] = Gp2D (KRAS G12D), enhancer + MEI-522 (Voruciclib), 72 h
[7] = Gp2D, Colorectal, Additional Single Agent Responses (inhibition, % I), 72 h
[8] = enhancer combined with MEI-522 (Voruciclib), Gp2D (Colorectal), 72 hours, inhibition data
[9] = TOV-21G (KRAS G13C), enhancer + MEI-522 (Voruciclib), 72 h
[10] = enhancer combined with MEI-522 (Voruciclib), TOV-21G (Ovary), 72 hours, inhibition data
[11] = Homo sapiens, SW48 KRAS (G12C/+), Colorectal, Additional Single Agent Responses (inhibition, % I), 72 h
[12] = Homo sapiens, SW48 KRAS (G12C/+), Colorectal, growth inhibition (GI) curve, single agent, 72 h
[13] = SW48 KRAS (G12C/+), enhancer + MEI-522 (Voruciclib), 72 h
[14] = enhancer combined with MEI-522 (Voruciclib), SW48 KRAS (G12C/+) (Colorectal), 72 hours, inhibition data

Compound `CN1CCN(c2ccc(OC(F)(F)F)c(Nc3ncc4c(n3)-c3c(c(C(N)=O)nn3CCO)CC4)c2)CC1` [Onvansertib] has a GI50 (Panc 04.03; Homo sapiens, Panc 04.03, 72 h) of 50.8 nM, an EC50 (Panc 04.03; Homo sapiens, Panc 04.03, 72 h, Additional Single Agent Responses (inhibition, % I), 72 h) of 18.7 nM and an EC50 (Panc 04.03; Homo sapiens, Panc 04.03, 72 h, growth inhibition (GI) curve, single agent, 72 h) of 19.2 nM. The Emax (Panc 04.03; Homo sapiens, Panc 04.03, 72 h, read-out: Max Response (% GI)) was 70%, the Emax (Panc 04.03; Homo sapiens, Panc 04.03, 72 h, read-out: Max Response (% I)) was 54% and the “Best CI” value (Panc 04.03; [1]) was 0.32. For the same compound, the “Bliss Volume” value (Panc 04.03; [1]) was 2.32, the HSA volume (Panc 04.03; [1]) was 0.85 and the “Loewe Volume” value (Panc 04.03; [1]) was 0.87. For the same compound, the “Synergy Score” value (Panc 04.03; [1]) was 1.99, the “Response Area” value (Panc 04.03; Additional Single Agent Responses (inhibition, % I), 72 h) was 1.94 and the “Response Area” value (Panc 04.03; growth inhibition (GI), AUC, single agent, 72 h) was 2.60. The “Best CI” value (Panc 04.03; [2]) was 0.64, the “Best CI Level” value (Panc 04.03; [2]) was 20 and the “Bliss Volume” value (Panc 04.03; [2]) was 0.17. The HSA volume (Panc 04.03; [2]) was 0.61, the “Loewe Volume” value (Panc 04.03; [2]) was 0.89 and the “Synergy Score” value (Panc 04.03; [2]) was 0.98. The “Best CI” value (HCC1171; [3]) was 1.01, the “Bliss Volume” value (HCC1171; [3]) was −2.83 and the HSA volume (HCC1171; [3]) was −2.66. The “Loewe Volume” value (HCC1171; [3]) was −1.72, the “Synergy Score” value (HCC1171; [3]) was 1.86 and the EC50 (HCC1171; [4]) was 15.5 nM. For the same compound, the “Response Area” value (HCC1171; [4]) was 1.75, the Emax (HCC1171; HCC1171, Lung, Additional Single Agent Responses, 72 h, read-out: Max Response (% I)) was 46% and the GI50 (HCC1171; HCC1171, Lung, growth inhibition (GI) curve, single agent, 72 h) was 33 nM. The “Response Area” value (HCC1171; HCC1171, Lung, growth inhibition (GI), AUC, single agent, 72 h) was 3.02, the Emax (HCC1171; HCC1171, Lung, growth inhibition (GI), single agent, 72 h, read-out: Max Response (% GI)) was 81% and the “Best CI” value (HCC1171; [5]) was 0.62. The “Bliss Volume” value (HCC1171; [5]) was −3.14, the HSA volume (HCC1171; [5]) was −1.61 and the “Loewe Volume” value (HCC1171; [5]) was −1.03. For the same compound, the “Synergy Score” value (HCC1171; [5]) was 0.59, the Best CI Level (HCC1171; enhancer combined with MEI-522 (Voruciclib), HCC1171 (Lung), 72 hours, inhibition data, unit assumed) was 50% and the EC50 (Gp2D; 72 h, Colorectal, Additional Single Agent Responses (inhibition, % I)) was 23.8 nM. For the same compound, the EC50 (Gp2D; 72 h, Colorectal, growth inhibition (GI) curve, single agent) was 33.9 nM, the “Best CI” value (Gp2D; [6]) was 0.96 and the “Bliss Volume” value (Gp2D; [6]) was 7.51. For the same compound, the HSA volume (Gp2D; [6]) was −1.36, the “Loewe Volume” value (Gp2D; [6]) was −1.41 and the “Synergy Score” value (Gp2D; [6]) was 3.16. For the same compound, the IC50 (Gp2D; [7]) was 25.5 nM, the “Response Area” value (Gp2D; [7]) was 4.29 and the Emax (Gp2D; Gp2D, Colorectal, Additional Single Agent Responses, 72 h, read-out: Max Response (% I)) was 93%. For the same compound, the GI50 (Gp2D; Gp2D, Colorectal, growth inhibition (GI) curve, single agent, 72 h) was 22.4 nM, the “Response Area” value (Gp2D; Gp2D, Colorectal, growth inhibition (GI), AUC, single agent, 72 h) was 7.46 and the Emax (Gp2D; Gp2D, Colorectal, growth inhibition (GI), single agent, 72 h, read-out: Max Response (% GI)) was 170%. The “Best CI” value (Gp2D; [8]) was 0.77, the “Best CI Level” value (Gp2D; [8]) was 20 and the “Bliss Volume” value (Gp2D; [8]) was 0.17. For the same compound, the HSA volume (Gp2D; [8]) was 0.25, the “Loewe Volume” value (Gp2D; [8]) was 0.05 and the “Synergy Score” value (Gp2D; [8]) was 0.56. The EC50 (TOV-21G; Homo sapiens, TOV21G, 72 h, TOV-21G, Ovary, Additional Single Agent Responses (inhibition, % I)) was 28.1 nM, the EC50 (TOV-21G; Homo sapiens, TOV21G, 72 h, TOV-21G, Ovary, growth inhibition (GI) curve, single agent) was 34.2 nM and the IC50 (TOV-21G; Homo sapiens, TOV21G, TOV-21G, Ovary, Additional Single Agent Responses (inhibition, % I), 72 h) was 31.6 nM. The Emax (TOV-21G; Homo sapiens, TOV21G, TOV-21G, Ovary, Additional Single Agent Responses, 72 h, read-out: Max Response (% I)) was 86%, the GI50 (TOV-21G; Homo sapiens, TOV21G, TOV-21G, Ovary, growth inhibition (GI) curve, single agent, 72 h) was 26.5 nM and the Emax (TOV-21G; Homo sapiens, TOV21G, TOV-21G, Ovary, growth inhibition (GI), single agent, 72 h, read-out: Max Response (% GI)) was 143%. For the same compound, the “Best CI” value (TOV-21G; [9]) was 0.40, the “Bliss Volume” value (TOV-21G; [9]) was 5.55 and the HSA volume (TOV-21G; [9]) was −0.24. For the same compound, the “Loewe Volume” value (TOV-21G; [9]) was −0.71, the “Synergy Score” value (TOV-21G; [9]) was 1.56 and the “Response Area” value (TOV-21G; TOV-21G, Ovary, Additional Single Agent Responses (inhibition, % I), 72 h) was 3.84. The “Response Area” value (TOV-21G; TOV-21G, Ovary, growth inhibition (GI), AUC, single agent, 72 h) was 6.09, the “Best CI” value (TOV-21G; [10]) was 0.56 and the “Best CI Level” value (TOV-21G; [10]) was 30. The “Bliss Volume” value (TOV-21G; [10]) was 0.52, the HSA volume (TOV-21G; [10]) was 0.33 and the “Loewe Volume” value (TOV-21G; [10]) was 0.43. For the same compound, the “Synergy Score” value (TOV-21G; [10]) was 0.98, the EC50 (SW48 KRAS (G12C/+); [11]) was 15.5 nM and the EC50 (SW48 KRAS (G12C/+); [12]) was 17.1 nM. It also gave an IC50 (SW48 KRAS (G12C/+); [11]) of 16.3 nM, an Emax (SW48 KRAS (G12C/+); Homo sapiens, SW48 KRAS (G12C/+), Colorectal, Additional Single Agent Responses, 72 h, read-out: Max Response (% I)) of 93% and a GI50 (SW48 KRAS (G12C/+); [12]) of 15.9 nM. The Emax (SW48 KRAS (G12C/+); Homo sapiens, SW48 KRAS (G12C/+), Colorectal, growth inhibition (GI), single agent, 72 h, read-out: Max Response (% GI)) was 159%, the “Response Area” value (SW48 KRAS (G12C/+); SW48 KRAS (G12C/+), Colorectal, Additional Single Agent Responses (inhibition, % I), 72 h) was 4.14 and the “Response Area” value (SW48 KRAS (G12C/+); SW48 KRAS (G12C/+), Colorectal, growth inhibition (GI), AUC, single agent, 72 h) was 5.77. For the same compound, the “Best CI” value (SW48 KRAS (G12C/+); [13]) was 0.86, the “Bliss Volume” value (SW48 KRAS (G12C/+); [13]) was 2.74 and the HSA volume (SW48 KRAS (G12C/+); [13]) was −2.16. The “Loewe Volume” value (SW48 KRAS (G12C/+); [13]) was −0.91, the “Synergy Score” value (SW48 KRAS (G12C/+); [13]) was 5.28 and the “Best CI” value (SW48 KRAS (G12C/+); [14]) was 0.67. For the same compound, the “Best CI Level” value (SW48 KRAS (G12C/+); [14]) was 20, the “Bliss Volume” value (SW48 KRAS (G12C/+); [14]) was −0.08 and the HSA volume (SW48 KRAS (G12C/+); [14]) was 0.19. For the same compound, the “Loewe Volume” value (SW48 KRAS (G12C/+); [14]) was −0.06 and the “Synergy Score” value (SW48 KRAS (G12C/+); [14]) was 1.03.
